# Experimental data from BigSolDB 2.1.
compound,measurement,setting,value
CCOc1ccc(C=O)cc1O,solubility (mole fraction),"in THF, 283.15 K",0.0523
same,solubility (mole fraction),"in THF, 288.15 K",0.0624
same,solubility (mole fraction),"in THF, 293.15 K",0.071
same,solubility (mole fraction),"in THF, 298.15 K",0.0842
same,solubility (mole fraction),"in THF, 303.15 K",0.094
same,solubility (mole fraction),"in THF, 308.15 K",0.108
same,solubility (mole fraction),"in THF, 313.15 K",0.123
same,solubility (mole fraction),"in THF, 318.15 K",0.138
same,solubility (mole fraction),"in THF, 323.15 K",0.156
same,solubility (mole fraction),"in acetone, 283.15 K",0.0425
same,solubility (mole fraction),"in acetone, 288.15 K",0.0467
same,solubility (mole fraction),"in acetone, 293.15 K",0.0515
same,solubility (mole fraction),"in acetone, 298.15 K",0.057
same,solubility (mole fraction),"in acetone, 303.15 K",0.0652
same,solubility (mole fraction),"in acetone, 308.15 K",0.0718
same,solubility (mole fraction),"in acetone, 313.15 K",0.0819
same,solubility (mole fraction),"in acetone, 318.15 K",0.092
same,solubility (mole fraction),"in acetone, 323.15 K",0.114
same,solubility (mole fraction),"in acetonitrile, 283.15 K",0.0105
same,solubility (mole fraction),"in acetonitrile, 288.15 K",0.0133
same,solubility (mole fraction),"in acetonitrile, 293.15 K",0.015
same,solubility (mole fraction),"in acetonitrile, 298.15 K",0.0191
same,solubility (mole fraction),"in acetonitrile, 303.15 K",0.0228
same,solubility (mole fraction),"in acetonitrile, 308.15 K",0.0285
same,solubility (mole fraction),"in acetonitrile, 313.15 K",0.0353
same,solubility (mole fraction),"in acetonitrile, 318.15 K",0.0406
same,solubility (mole fraction),"in acetonitrile, 323.15 K",0.0551
same,solubility (mole fraction),"in ethanol, 283.15 K",0.0066
same,solubility (mole fraction),"in ethanol, 288.15 K",0.0078
same,solubility (mole fraction),"in ethanol, 293.15 K",0.0101
same,solubility (mole fraction),"in ethanol, 298.15 K",0.012
same,solubility (mole fraction),"in ethanol, 303.15 K",0.0141
same,solubility (mole fraction),"in ethanol, 308.15 K",0.0179
same,solubility (mole fraction),"in ethanol, 313.15 K",0.0224
same,solubility (mole fraction),"in ethanol, 318.15 K",0.0276
same,solubility (mole fraction),"in ethanol, 323.15 K",0.0345
same,solubility (mole fraction),"in ethyl acetate, 283.15 K",0.0166
same,solubility (mole fraction),"in ethyl acetate, 288.15 K",0.0194
same,solubility (mole fraction),"in ethyl acetate, 293.15 K",0.0212
same,solubility (mole fraction),"in ethyl acetate, 298.15 K",0.0259
same,solubility (mole fraction),"in ethyl acetate, 303.15 K",0.0288
same,solubility (mole fraction),"in ethyl acetate, 308.15 K",0.0361
same,solubility (mole fraction),"in ethyl acetate, 313.15 K",0.0416
same,solubility (mole fraction),"in ethyl acetate, 318.15 K",0.0511
same,solubility (mole fraction),"in ethyl acetate, 323.15 K",0.0606
same,solubility (mole fraction),"in ethyl formate, 283.15 K",0.0135
same,solubility (mole fraction),"in ethyl formate, 288.15 K",0.0172
same,solubility (mole fraction),"in ethyl formate, 293.15 K",0.0196
same,solubility (mole fraction),"in ethyl formate, 298.15 K",0.0236
same,solubility (mole fraction),"in ethyl formate, 303.15 K",0.0278
same,solubility (mole fraction),"in ethyl formate, 308.15 K",0.0341
same,solubility (mole fraction),"in ethyl formate, 313.15 K",0.0415
same,solubility (mole fraction),"in ethyl formate, 318.15 K",0.0488
same,solubility (mole fraction),"in ethyl formate, 323.15 K",0.0605
same,solubility (mole fraction),"in isopropanol, 283.15 K",0.0035
same,solubility (mole fraction),"in isopropanol, 288.15 K",0.005
same,solubility (mole fraction),"in isopropanol, 293.15 K",0.0063
same,solubility (mole fraction),"in isopropanol, 298.15 K",0.0082
same,solubility (mole fraction),"in isopropanol, 303.15 K",0.01
same,solubility (mole fraction),"in isopropanol, 308.15 K",0.0129
same,solubility (mole fraction),"in isopropanol, 313.15 K",0.0168
same,solubility (mole fraction),"in isopropanol, 318.15 K",0.0216
same,solubility (mole fraction),"in isopropanol, 323.15 K",0.0277
same,solubility (mole fraction),"in isopropyl acetate, 283.15 K",0.013
same,solubility (mole fraction),"in isopropyl acetate, 288.15 K",0.0156
same,solubility (mole fraction),"in isopropyl acetate, 293.15 K",0.0187
same,solubility (mole fraction),"in isopropyl acetate, 298.15 K",0.0202
same,solubility (mole fraction),"in isopropyl acetate, 303.15 K",0.0227
same,solubility (mole fraction),"in isopropyl acetate, 308.15 K",0.0274
same,solubility (mole fraction),"in isopropyl acetate, 313.15 K",0.0325
same,solubility (mole fraction),"in isopropyl acetate, 318.15 K",0.0387
same,solubility (mole fraction),"in isopropyl acetate, 323.15 K",0.0457
same,solubility (mole fraction),"in methanol, 283.15 K",0.0072
same,solubility (mole fraction),"in methanol, 288.15 K",0.0091
same,solubility (mole fraction),"in methanol, 293.15 K",0.0119
same,solubility (mole fraction),"in methanol, 298.15 K",0.0159
same,solubility (mole fraction),"in methanol, 303.15 K",0.0206
same,solubility (mole fraction),"in methanol, 308.15 K",0.0268
same,solubility (mole fraction),"in methanol, 313.15 K",0.0362
same,solubility (mole fraction),"in methanol, 318.15 K",0.0482
same,solubility (mole fraction),"in methanol, 323.15 K",0.0635
same,solubility (mole fraction),"in methyl acetate, 283.15 K",0.0166
same,solubility (mole fraction),"in methyl acetate, 288.15 K",0.0205
same,solubility (mole fraction),"in methyl acetate, 293.15 K",0.0263
same,solubility (mole fraction),"in methyl acetate, 298.15 K",0.0301
same,solubility (mole fraction),"in methyl acetate, 303.15 K",0.0331
same,solubility (mole fraction),"in methyl acetate, 308.15 K",0.0409
same,solubility (mole fraction),"in methyl acetate, 313.15 K",0.048
same,solubility (mole fraction),"in methyl acetate, 318.15 K",0.0557
same,solubility (mole fraction),"in methyl acetate, 323.15 K",0.0678
same,solubility (mole fraction),"in n-propanol, 283.15 K",0.0048
same,solubility (mole fraction),"in n-propanol, 288.15 K",0.0065
same,solubility (mole fraction),"in n-propanol, 293.15 K",0.0077
same,solubility (mole fraction),"in n-propanol, 298.15 K",0.0098
same,solubility (mole fraction),"in n-propanol, 303.15 K",0.0118
same,solubility (mole fraction),"in n-propanol, 308.15 K",0.0149
same,solubility (mole fraction),"in n-propanol, 313.15 K",0.0194
same,solubility (mole fraction),"in n-propanol, 318.15 K",0.0246
same,solubility (mole fraction),"in n-propanol, 323.15 K",0.0312
same,solubility (mole fraction),"in toluene, 283.15 K",0.0032
same,solubility (mole fraction),"in toluene, 288.15 K",0.0037
same,solubility (mole fraction),"in toluene, 293.15 K",0.0042
same,solubility (mole fraction),"in toluene, 298.15 K",0.0049
same,solubility (mole fraction),"in toluene, 303.15 K",0.0057
same,solubility (mole fraction),"in toluene, 308.15 K",0.0068
same,solubility (mole fraction),"in toluene, 313.15 K",0.0077
same,solubility (mole fraction),"in toluene, 318.15 K",0.0092
same,solubility (mole fraction),"in toluene, 323.15 K",0.011
